This passage reports TGI and GI50 results from PubChem BioAssay (NCI).

Some test systems named below: SK-MEL-2 melanoma; SF-268 CNS; EKVX NSCLC; SW-620 colon; OVCAR-3 ovarian; RPMI-8226 leukemia; SNB-19 CNS; MALME-3M melanoma; MOLT-4 leukemia.
Common to all, as to assay: NCI-60 cell line screen, 48 h

Each structure is given as a SMILES string. “And” between values parts separate entries of the source, which are not always exact repeats. Identical values can stand only once.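 Results reflect a 48-hour exposure of cells in 96-well plates to compound at five concentrations. At the GI50, growth is halved. TGI is the concentration that stops growth completely.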 Where only a bound is given, the exact number is not on record here.

Consider `COC(=O)CCC12CCC(=O)C1[C@@H](C(=O)OC)C[C@H]2C(=O)OC` (some centres not stated), for which the TGI with SK-MEL-2 melanoma, in the assay on SF-268 CNS, with EKVX NSCLC, in the assay on SW-620 colon, in the assay with OVCAR-3 ovarian and in the assay with RPMI-8226 leukemia was > 100 µM each time. Also, the TGI with SNB-19 CNS, in the assay with MALME-3M melanoma and with MOLT-4 leukemia was > 100 µM each time.

`COc1ccc2c(c1OC)-c1c(c3ccc([N+](=O)[O-])cc3c(=O)n1CCCBr)C2=O`: the GI50 is > 100 µM in the assay on SK-MEL-2 melanoma; > 100 µM with EKVX NSCLC; 5.59 µM in the assay on SW-620 colon; > 100 µM in the assay with OVCAR-3 ovarian; 25 µM in the assay on RPMI-8226 leukemia; 69.9 µM in the assay on SNB-19 CNS. The GI50 in the assay on MALME-3M melanoma is 79.9 µM; in the assay with MOLT-4 leukemia, 18.9 µM. Moreover, the TGI in the assay on SK-MEL-2 melanoma, with EKVX NSCLC, in the assay on SW-620 colon, with OVCAR-3 ovarian, in the assay on RPMI-8226 leukemia and in the assay with SNB-19 CNS was > 100 µM each time. Also, the figures for the TGI in the assay on MALME-3M melanoma and in the assay on MOLT-4 leukemia were > 100 µM and 52.7 µM, respectively.

Take `Cc1c2c(cc3c1C(=O)C(=O)C1=C3OC[C@@H]1C)C(C)(C)CCC2`: the TGI is 21.2 µM in the assay with SK-MEL-2 melanoma; 35.4 µM with SF-268 CNS; 58.7 µM in the assay with EKVX NSCLC; 28.4 µM in the assay on SW-620 colon; 34.9 µM with OVCAR-3 ovarian; 49.3 µM in the assay with SNB-19 CNS. The results for the TGI with MALME-3M melanoma and in the assay with MOLT-4 leukemia were 29 µM and 32 µM, respectively.

With `O=C1C(=O)N(c2ccc(Cl)cc2)C(=O)C(=O)C1c1nc2ccccc2s1`, the TGI in the assay with SK-MEL-2 melanoma, in the assay on SF-268 CNS, in the assay with EKVX NSCLC, in the assay with SW-620 colon, in the assay with OVCAR-3 ovarian and in the assay with RPMI-8226 leukemia was > 100 µM in each case. Also, the TGI in the assay with SNB-19 CNS, in the assay with MALME-3M melanoma and with MOLT-4 leukemia was > 100 µM in each case.

For `COc1ccc(-c2cc(C(=O)Nc3cc(C(F)(F)F)cc(C(F)(F)F)c3)c3ccccc3n2)cc1`, the TGI in the assay with SK-MEL-2 melanoma is 30.6 µM; in the assay with SF-268 CNS it was 32.2 µM; with EKVX NSCLC it was 27.4 µM; in the assay on SW-620 colon, 21 µM; in the assay on OVCAR-3 ovarian, 15.5 µM; in the assay on RPMI-8226 leukemia, > 100 µM. The TGI in the assay on MALME-3M melanoma is 46.4 µM; in the assay with MOLT-4 leukemia, > 100 µM.

As for `Cc1ccc(Oc2ccccc2N)cc1`, the TGI in the assay on SK-MEL-2 melanoma was > 100 µM; in the assay on SF-268 CNS, > 100 µM; in the assay on EKVX NSCLC, > 100 µM; with SW-620 colon it was > 100 µM; in the assay with OVCAR-3 ovarian, 55 µM; in the assay on RPMI-8226 leukemia, > 100 µM. In addition, the TGI with SNB-19 CNS, in the assay on MALME-3M melanoma and in the assay on MOLT-4 leukemia was > 100 µM in each case.

On to `Clc1cccc(N2CCN(CCCN3CCc4c([nH]c5ccccc45)C3c3cccnc3)CC2)c1` (configuration not stated), for which the TGI in the assay on SK-MEL-2 melanoma is 24.3 µM; with EKVX NSCLC, 35.1 µM; in the assay on SW-620 colon, 38.1 µM; in the assay with OVCAR-3 ovarian, 22.7 µM; in the assay on SNB-19 CNS, > 100 µM; in the assay on MALME-3M melanoma it was 8.97 µM and 21.6 µM. In the assay on MOLT-4 leukemia, this compound had a TGI of 39.8 µM. Also, the GI50 is 9.24 µM in the assay on OVCAR-3 ovarian, 5.78 µM in the assay on MALME-3M melanoma and 5.33 µM in the assay on MOLT-4 leukemia.

For `[O-]c1ccccc1C=Nc1ccc2c(c1)CCC2.[O-]c1ccccc1C=Nc1ccc2c(c1)CCC2.[O]=[U+2]=[O]`, the GI50 in the assay with SK-MEL-2 melanoma was > 100 µM; in the assay with SF-268 CNS, > 100 µM; in the assay on EKVX NSCLC, > 100 µM; with SW-620 colon it was > 100 µM; in the assay on OVCAR-3 ovarian, > 100 µM; in the assay on RPMI-8226 leukemia, 16.5 µM. Besides, the GI50 with SNB-19 CNS is 27.9 µM; in the assay with MALME-3M melanoma, > 100 µM; with MOLT-4 leukemia, 12.4 µM. Also, the TGI in the assay with SK-MEL-2 melanoma, with SF-268 CNS, with EKVX NSCLC, in the assay with SW-620 colon, in the assay on OVCAR-3 ovarian and in the assay with RPMI-8226 leukemia was > 100 µM throughout. Moreover, the TGI in the assay on SNB-19 CNS, in the assay with MALME-3M melanoma and in the assay on MOLT-4 leukemia was > 100 µM throughout.

On to `COc1ccc(C(=O)c2cc3c(N)c(C(=O)Nc4ccccc4)sc3nc2C)cc1`, for which the GI50 with SK-MEL-2 melanoma is 4.22 µM; with SF-268 CNS, 3.65 µM; in the assay on EKVX NSCLC it was 5.42 µM; in the assay on SW-620 colon, 0.415 µM; with RPMI-8226 leukemia, 1.78 µM; in the assay with SNB-19 CNS, 2.02 µM. The GI50 in the assay on MOLT-4 leukemia is 0.796 µM. For the same compound, the TGI with SK-MEL-2 melanoma, in the assay on SF-268 CNS, in the assay on EKVX NSCLC, with SW-620 colon, in the assay with RPMI-8226 leukemia and in the assay on SNB-19 CNS was > 100 µM each time. For the same compound, the TGI with MOLT-4 leukemia was > 100 µM.

As to `NNc1cnn(-c2ccccc2)c(=O)c1Cl`, the TGI in the assay on SK-MEL-2 melanoma, with SF-268 CNS, in the assay with SW-620 colon, in the assay on OVCAR-3 ovarian, with RPMI-8226 leukemia and in the assay with MALME-3M melanoma was > 100 µM in each case. In addition, the TGI with MOLT-4 leukemia is > 100 µM.

Regarding `Cc1c(C(=O)/C=C/C=C/c2ccccc2)[n+](=O)c2ccccc2n1[O-]`, the TGI with SK-MEL-2 melanoma is 91.3 µM; in the assay with SF-268 CNS, > 100 µM; in the assay on EKVX NSCLC it was > 100 µM; with SW-620 colon it was > 100 µM; in the assay on OVCAR-3 ovarian it was 83.3 µM; in the assay on SNB-19 CNS, > 100 µM. Moreover, the TGI is 66.8 µM in the assay on MALME-3M melanoma and > 100 µM with MOLT-4 leukemia.

Take `CC(C)(O)/C=C/C(=O)[C@](C)(O)[C@H]1[C@H](O)C[C@@]2(C)[C@@H]3CC=C4[C@@H](C[C@H](O)C(=O)C4(C)C)[C@]3(C)C(=O)C[C@]12C`: the GI50 is 0.0294 µM in the assay on SK-MEL-2 melanoma; 0.477 µM with EKVX NSCLC; 0.104 µM with SW-620 colon; 0.125 µM with OVCAR-3 ovarian; 0.0666 µM with RPMI-8226 leukemia; 0.0476 µM in the assay with SNB-19 CNS. Moreover, in the assay with MOLT-4 leukemia, the GI50 was 0.709 µM. In addition, the TGI in the assay on SK-MEL-2 melanoma is 0.0829 µM and 0.131 µM; with SF-268 CNS it was 0.631 µM and 0.807 µM; in the assay with EKVX NSCLC it was 0.833 µM and 3.47 µM; in the assay with SW-620 colon, 9.68 µM; in the assay on OVCAR-3 ovarian, 1.02 µM; with RPMI-8226 leukemia, 0.915 µM and 0.824 µM. For the same compound, the TGI with SNB-19 CNS was 0.349 µM and 0.951 µM; in the assay on MALME-3M melanoma, 0.932 µM; in the assay on MOLT-4 leukemia it was 11.8 µM.

Take `O=C(O)c1cc(=O)c2c([nH]c3ccccc32)s1`: the TGI with SK-MEL-2 melanoma, with SF-268 CNS, with EKVX NSCLC, with SW-620 colon, with OVCAR-3 ovarian and in the assay with RPMI-8226 leukemia was > 100 µM in each case. Besides, the TGI with SNB-19 CNS, with MALME-3M melanoma and with MOLT-4 leukemia was > 100 µM each time.

As for `C#CCNC(=O)NCCCCC(NC(=O)OCc1ccccc1)C(=O)OCc1ccccc1` (configuration not stated), the TGI is > 100 µM in the assay on SK-MEL-2 melanoma; > 100 µM in the assay with EKVX NSCLC; > 100 µM in the assay with SW-620 colon; > 100 µM in the assay with OVCAR-3 ovarian; 45.9 µM in the assay with RPMI-8226 leukemia; > 100 µM with SNB-19 CNS. Moreover, the TGI was > 100 µM in the assay with MALME-3M melanoma and 51.9 µM with MOLT-4 leukemia.

Turning to `COC(=O)C1C(=O)CC2CCCCC21` (configuration not stated), the TGI with SK-MEL-2 melanoma, in the assay with SF-268 CNS, in the assay on SW-620 colon, in the assay with OVCAR-3 ovarian, in the assay on RPMI-8226 leukemia and in the assay with SNB-19 CNS was > 100 µM each time. Further, the TGI with MALME-3M melanoma and with MOLT-4 leukemia was > 100 µM in each case.

For the compound `Cl/C(N=Nc1ccccc1)=N/Nc1ccccc1`, the TGI in the assay on SK-MEL-2 melanoma, in the assay with SF-268 CNS, with EKVX NSCLC, in the assay on SW-620 colon, with SNB-19 CNS and with MALME-3M melanoma was > 100 µM in each case. Moreover, the TGI in the assay on MOLT-4 leukemia is > 100 µM.

Turning to `O=c1nc(-c2ccccc2)cc(CC(O)c2ccc(Cl)c(Cl)c2)[nH]1` (configuration not stated), the TGI was 65.3 µM in the assay with SK-MEL-2 melanoma; > 100 µM in the assay on SF-268 CNS; > 100 µM in the assay on EKVX NSCLC; > 100 µM with SW-620 colon; > 100 µM in the assay on OVCAR-3 ovarian; > 100 µM in the assay on SNB-19 CNS. The TGI with MALME-3M melanoma and with MOLT-4 leukemia was > 100 µM in each case.

Regarding `C[Si](C)(C)C(CCCCSc1ccccc1)(Sc1ccccc1)Sc1ccccc1`, the TGI in the assay with SK-MEL-2 melanoma, with SF-268 CNS, in the assay on EKVX NSCLC, in the assay with SW-620 colon, in the assay on RPMI-8226 leukemia and in the assay with SNB-19 CNS was > 100 µM throughout. Moreover, the TGI in the assay with MOLT-4 leukemia is > 100 µM.

Regarding `CCOC(=O)CN(Cn1cncn1)Cn1cncn1`, the TGI with SK-MEL-2 melanoma was > 100 µM; in the assay with EKVX NSCLC it was > 100 µM; in the assay with SW-620 colon it was 60 µM; in the assay with OVCAR-3 ovarian it was 51.8 µM; in the assay on RPMI-8226 leukemia, > 100 µM; in the assay on MALME-3M melanoma it was > 100 µM. The TGI in the assay on MOLT-4 leukemia was > 100 µM.

With `O=C(C#Cc1ccccc1)N1c2ccccc2CC1c1c[nH]c2ccccc12` (configuration not stated), the TGI with SK-MEL-2 melanoma was 26.6 µM; with EKVX NSCLC, 42.1 µM; in the assay on SW-620 colon, 30.3 µM; in the assay on OVCAR-3 ovarian, 32.1 µM; in the assay with RPMI-8226 leukemia, 43.2 µM; in the assay with SNB-19 CNS, > 100 µM. Also, the values for the TGI in the assay on MALME-3M melanoma and in the assay on MOLT-4 leukemia were 37.6 µM and 46.6 µM, respectively.

For `CC1(c2cc3c(cc2Br)OCO3)SCCCS1`, the TGI in the assay on SK-MEL-2 melanoma was 88.3 µM; in the assay with SF-268 CNS, > 100 µM; in the assay on EKVX NSCLC, > 100 µM; in the assay on SW-620 colon it was > 100 µM; with OVCAR-3 ovarian, > 100 µM; in the assay with RPMI-8226 leukemia, 91.6 µM. The TGI is > 100 µM in the assay on SNB-19 CNS and 96.2 µM with MOLT-4 leukemia.
